# Test results from patent publication US20250120988A1, “SMALL MOLECULE COMPOUND FOR TREATING ISCHEMIC STROKE, ITS PREPARATION METHOD, AND APPLICATION” (SHANGHAI SIXTH PEOPLE'S HOSPITAL, priority 2023, published 2025).
# How the values were obtained:
# GluN1+NR2A = biological target: T1, GluN1+NR2A (Homo sapiens, UniProt Q05586+Q12879); assay: Whole-cell patch clamp, blocking of GluN1+NR2A NMDAR current in CHO cells; format: cell-based; details: 100 μM NMDA and 1 μM glycine, read-out: IC50 of competitive antagonism against glutamate binding GluN1+NR2A currents
# T1 construct: expressed in transfected cells; host or cells: CHO cells
# Method: (§1) Figure a illustrates LK-2 concentration-dependent blocking of signal of GluN1+GluN2A and GluN1+GluN2B subtypes of NMDAR currents (recorded from the same CHO cell) in patch clamp experiments, with 100 μM NDMA and 1 μM glycine used to activate NMDAR currents. LK-2 concentrations were 1, 10, 100, and 500 μM in sequence. Figure b illustrates the dose-response curves fitted based on the current amplitudes recorded in Figure a, with IC50 representing the half-maximal inhibitory concentration. Smaller IC50 values indicate stronger blocking effects of the compound.
# (§2) [drawing 3] • 2. Electrophysiological experiments refer to the use of patch clamp techniques to overexpress ASICs (ASIC1a) and NMDARs (GluNR1+NR2A or GluNR1+NR2B) in CHO cell lines (Chinese hamster ovary cells), with the above-mentioned proteins carrying GFP green fluorescent protein for identification under fluorescence microscopy. The synthesized small molecules are separately tested for their blocking effects on the currents generated by the two types of receptors, and the IC50 values are calculated. • 2.1 The experimental steps of the membrane clamp technique are as follows.
# (§3) Whole-cell patch clamp recordings were performed on neurons or CHO cells cultured in a cell-culture dish mounted on a fixed stage upright microscope. The recording electrode (resistance 4-6 MΩ) was made of 1.5 mm borosilicate glass. […]
# GluN1+NR2B = biological target: T2, GluN1+NR2B (Homo sapiens, UniProt Q05586+Q13224); assay: Whole-cell patch clamp, blocking of GluN1+NR2B NMDAR current in CHO cells; format: cell-based; details: 100 μM NMDA and 1 μM glycine, read-out: IC50 of competitive antagonism against glutamate binding GluN1+NR2B currents
# T2 construct: expressed in transfected cells; host or cells: CHO cells
# Method: as §1, §2, §3
# MCAO model = assay: MCAO cerebral ischemia model, rotarod motor function test; format: in vivo, mice; details: 30 mg/kg, seven days after brain injury
# Method: Figure a illustrates the experimental process, where drug intervention (using a concentration of 30 mg/kg of LK-2) was conducted 30 minutes after modeling, and the first brain function test (rotarod test) was performed 24 hours after modeling. The second brain function test was conducted 7 days later, with 5 training tests followed by 1 formal test in each rotarod test. Figure b illustrates the time taken for mice to fall off the rotarod during the 5 training tests, where longer time indicates better motor function. […] Figure c illustrates the analysis results of motor ability in the formal test conducted 24 hours and 7 days after modeling for each group of mice. • 3.4 The animal model of cerebral ischemic stroke, known as the middle cerebral artery occlusion (MCAO) model, is a classic model used to simulate individual patients with ischemic stroke, and evaluate the size of cerebral infarction and motor function (evaluate through the rotarod test, including assessment of motor learning and coordination, the experimental design process is illustrated in FIG. 8a) in model animals after drug intervention. The specific steps are as follows: a transient focal ischemic model was formed by occluding the middle cerebral artery for 30 minutes in wild-type or ASIC1a gene knockout mice. […] In this test, mice were placed on the rotating rod and the time to fall was recorded. […]
# T1 sequence (Q12879 23-1464, other chains not shown): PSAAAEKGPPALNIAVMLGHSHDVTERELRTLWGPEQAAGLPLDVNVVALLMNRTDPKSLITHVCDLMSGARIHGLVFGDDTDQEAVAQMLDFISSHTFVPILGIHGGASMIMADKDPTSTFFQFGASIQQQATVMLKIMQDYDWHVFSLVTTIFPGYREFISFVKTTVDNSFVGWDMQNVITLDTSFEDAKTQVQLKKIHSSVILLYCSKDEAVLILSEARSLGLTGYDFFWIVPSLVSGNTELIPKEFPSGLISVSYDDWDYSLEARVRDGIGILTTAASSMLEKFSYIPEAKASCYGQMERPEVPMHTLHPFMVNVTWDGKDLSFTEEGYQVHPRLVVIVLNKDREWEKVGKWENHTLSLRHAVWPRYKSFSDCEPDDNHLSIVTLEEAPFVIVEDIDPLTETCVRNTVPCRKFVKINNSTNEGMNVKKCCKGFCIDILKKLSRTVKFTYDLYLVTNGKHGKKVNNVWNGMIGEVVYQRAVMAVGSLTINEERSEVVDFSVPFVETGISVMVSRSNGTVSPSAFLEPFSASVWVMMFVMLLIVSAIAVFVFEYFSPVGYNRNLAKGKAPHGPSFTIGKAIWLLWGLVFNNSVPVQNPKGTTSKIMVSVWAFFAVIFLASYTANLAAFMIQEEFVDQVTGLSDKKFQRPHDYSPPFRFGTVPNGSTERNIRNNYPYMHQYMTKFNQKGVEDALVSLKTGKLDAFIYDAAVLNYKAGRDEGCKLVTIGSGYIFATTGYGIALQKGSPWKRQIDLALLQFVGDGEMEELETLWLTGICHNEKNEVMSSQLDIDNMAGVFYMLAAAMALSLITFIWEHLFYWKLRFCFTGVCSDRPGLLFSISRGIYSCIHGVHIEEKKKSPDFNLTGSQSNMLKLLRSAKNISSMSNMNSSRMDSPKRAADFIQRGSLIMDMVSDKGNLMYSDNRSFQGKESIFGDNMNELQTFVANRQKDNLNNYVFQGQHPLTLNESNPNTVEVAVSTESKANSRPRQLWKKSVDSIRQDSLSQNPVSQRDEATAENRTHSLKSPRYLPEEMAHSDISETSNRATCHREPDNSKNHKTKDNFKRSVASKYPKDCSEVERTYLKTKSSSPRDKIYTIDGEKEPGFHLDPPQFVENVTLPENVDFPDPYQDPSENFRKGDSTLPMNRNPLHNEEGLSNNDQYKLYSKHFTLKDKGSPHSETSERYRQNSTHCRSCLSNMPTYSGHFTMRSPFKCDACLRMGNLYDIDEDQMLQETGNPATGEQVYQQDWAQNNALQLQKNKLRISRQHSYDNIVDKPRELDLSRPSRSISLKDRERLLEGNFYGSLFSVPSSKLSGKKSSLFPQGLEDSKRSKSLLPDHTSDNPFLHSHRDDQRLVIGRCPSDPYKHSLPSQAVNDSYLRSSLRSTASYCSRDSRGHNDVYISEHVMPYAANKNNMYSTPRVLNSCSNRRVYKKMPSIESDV
# T2 sequence (Q13224 27-1484, other chains not shown): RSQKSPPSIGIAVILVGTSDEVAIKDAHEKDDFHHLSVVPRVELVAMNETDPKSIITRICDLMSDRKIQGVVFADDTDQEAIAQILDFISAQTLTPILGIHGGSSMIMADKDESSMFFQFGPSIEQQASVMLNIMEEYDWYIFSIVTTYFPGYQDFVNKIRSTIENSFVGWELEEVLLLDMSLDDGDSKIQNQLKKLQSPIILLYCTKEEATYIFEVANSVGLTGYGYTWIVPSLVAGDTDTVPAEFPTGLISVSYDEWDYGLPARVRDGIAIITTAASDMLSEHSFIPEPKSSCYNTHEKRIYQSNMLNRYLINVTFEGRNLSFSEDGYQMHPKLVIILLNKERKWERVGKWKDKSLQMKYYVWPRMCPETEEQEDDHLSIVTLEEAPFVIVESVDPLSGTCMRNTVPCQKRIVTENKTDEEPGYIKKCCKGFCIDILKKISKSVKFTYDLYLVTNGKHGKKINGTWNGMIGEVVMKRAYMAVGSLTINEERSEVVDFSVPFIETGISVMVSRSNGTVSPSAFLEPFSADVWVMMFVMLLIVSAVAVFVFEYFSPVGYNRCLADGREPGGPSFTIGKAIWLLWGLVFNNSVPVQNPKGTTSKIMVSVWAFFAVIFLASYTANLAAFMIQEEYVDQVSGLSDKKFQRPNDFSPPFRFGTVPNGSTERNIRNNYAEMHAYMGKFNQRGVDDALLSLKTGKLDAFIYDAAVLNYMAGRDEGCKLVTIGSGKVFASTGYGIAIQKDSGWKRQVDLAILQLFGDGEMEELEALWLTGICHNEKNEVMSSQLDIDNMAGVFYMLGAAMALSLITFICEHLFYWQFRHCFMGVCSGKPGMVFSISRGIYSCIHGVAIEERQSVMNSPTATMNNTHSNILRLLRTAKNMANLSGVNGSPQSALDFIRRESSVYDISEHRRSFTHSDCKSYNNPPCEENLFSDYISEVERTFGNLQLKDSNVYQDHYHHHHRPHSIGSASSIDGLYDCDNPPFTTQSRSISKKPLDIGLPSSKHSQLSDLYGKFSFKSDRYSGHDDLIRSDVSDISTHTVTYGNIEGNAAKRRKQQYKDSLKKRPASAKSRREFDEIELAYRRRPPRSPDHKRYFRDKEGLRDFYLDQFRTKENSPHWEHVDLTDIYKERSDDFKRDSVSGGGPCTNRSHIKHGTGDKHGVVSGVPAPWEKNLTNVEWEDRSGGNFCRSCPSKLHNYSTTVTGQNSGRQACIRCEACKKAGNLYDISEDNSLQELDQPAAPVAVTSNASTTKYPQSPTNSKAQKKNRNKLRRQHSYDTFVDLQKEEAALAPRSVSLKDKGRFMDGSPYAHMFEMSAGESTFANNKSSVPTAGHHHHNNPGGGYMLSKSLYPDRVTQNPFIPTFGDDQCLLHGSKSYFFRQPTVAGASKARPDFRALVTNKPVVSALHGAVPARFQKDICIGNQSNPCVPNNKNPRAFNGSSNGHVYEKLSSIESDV
structure (smiles),measurement,setting,value
O=C(O)C1CN(C(c2ccccc2)P(=O)(O)O)CCN1 (stereo not shown) [LK-2],IC50,GluN1+NR2A,93.1 ± 28.3 µM
same,IC50,GluN1+NR2B,386 ± 109 µM
same,motor learning ability,MCAO model; rotarod training tests,significant improvement
same,overall improvement in motor function,MCAO model; rotarod,51.6%
